Test results reported in patent US12679878B2, “CRF2 receptor agonists and their use in therapy” (SANOFI, priority 2020, dated 2026).
In brackets after ≈: the same amount, converted by molar mass. Where two headings read alike, the source gives them in different places. Starred links: 1 amine or outer side, 2 acyl side, 3 side chain; linkers in the order of their positions; H or OH if unused. Non-standard residues stand in square brackets, D forms with d. Residues, ends and D or L forms follow the SMILES beside them. Groups on a side chain read outwards from the residue. *: point of attachment. C18 diacid = O=C(O)CCCCCCCCCCCCCCCCC(=O)*; γGlu = O=C(O)[C@H](CCC(=O)[*:2])N[*:1]; AEEA = NCCOCCOCC(=O)O; Aib = CC(C)(N)C(=O)O

Tests used:
human CRF2α receptor = target: T1, human CRF2α receptor (Homo sapiens, UniProt Q13324); experiment: cAMP agonism at human CRF2 α receptor in TeloHEAC cells (Example 7); type: cell-based; settings: cAMP HTRF, TeloHEAC cells stably expressing human CRF2 α
T1 construct: expressed in transfected cells; host or cells: TeloHEAC
T1 sequence (Q13324 1-411): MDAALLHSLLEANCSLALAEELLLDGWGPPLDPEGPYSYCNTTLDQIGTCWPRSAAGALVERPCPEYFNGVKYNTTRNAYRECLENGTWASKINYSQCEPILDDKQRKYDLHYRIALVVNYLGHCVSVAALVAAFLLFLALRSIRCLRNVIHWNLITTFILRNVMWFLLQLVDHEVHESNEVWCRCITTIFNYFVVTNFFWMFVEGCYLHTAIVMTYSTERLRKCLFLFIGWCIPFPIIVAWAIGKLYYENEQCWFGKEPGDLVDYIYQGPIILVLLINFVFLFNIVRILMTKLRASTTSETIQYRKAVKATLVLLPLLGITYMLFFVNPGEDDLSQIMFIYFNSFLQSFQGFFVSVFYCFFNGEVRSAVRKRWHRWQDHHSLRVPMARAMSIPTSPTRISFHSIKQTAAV
Outline: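 Cryopreserved cells are thawed, washed and resuspended in IBMX-containing (2 mM) HEPES-buffered HBSS with or without 0.1% HSA. Compound incubation runs 30 min at room temperature with 2000 cells per well, then cAMP is measured by time-resolved FRET. Potency is expressed as EC50, efficacy relative to urocortin 2 at 1000 nM.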

rat CRF2R α receptor = experiment: cAMP agonism at rat CRF2R α receptor in A7R5 rat aortic smooth muscle cells (Example 8); type: cell-based; settings: cAMP HTRF, A7R5 rat aortic smooth muscle cell line, 0% HSA
Outline: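 Thawed cryopreserved A7R5 cells in HBSS/20 mM HEPES (0 or 0.1% HSA) with 2 mM IBMX, 2000 cells/well, were exposed to compound for 30 min at room temperature. cAMP was read by HTRF (665/620 nm ratio) after 1 h with lysis reagents. Activity was normalised to 1000 nM urocortin 2 as 100%, and EC50 was taken as the concentration giving 50% of maximal activation.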

[1] = Chemical stability, purity loss by UPLC-UV after 28 days at 40° C. vs 5° C., pH 4.5 acetate buffer (Example 12); type: physicochemical; settings: 28 days 40° C. vs 5° C.; pH 4.5, 20 mM acetate buffer; 300 μM
Protocol: The chemical stability of the compounds was assessed by storing the compounds under various conditions and then determining the loss of purity by UPLC-UV.
Prior to measuring the chemical stability of a batch of test compound, the purity of the compound was determined through UPLC/MS. For stability testing the target concentration was 300 μM pure compound. Therefore, solutions from solid samples were prepared in a pH 4.5, 20 mM acetate buffer system with a concentration of 300 μM compound based on the previously determined % purity:
At the starting point, UPLC-UV was performed by injection of 2 μl of the undiluted sample. Aliquots were then stored for 28 days at temperatures of 5 and 40° C. […] Then 2 μl samples of the undiluted supernatant were analysed with UPLC-UV. The chemical stability was calculated by the equation: [(purity after 28 days at 5° C.)−(purity after 28 days at 40° C.)]/(purity after 28 days at 5° C.)]×100%. The purity was calculated as: [(peak area compound)/(total peak area)]×100%.

[2] = Solubility in buffer systems by UPLC-UV (Example 13); type: physicochemical
Outline: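 The supernatant was diluted 1:10 and quantified by UPLC-UV peak area against a reference standard curve, correcting for sequence-based extinction coefficients.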

[3] = Physical stability, dynamic light scattering assay (Example 15); type: physicochemical; settings: Buffer A (100 mM acetate, pH 4.5); for Apparent Rh [nm] 4 weeks / Scattering Intensity (I) [%] 4 weeks: 4 weeks at 40° C.
Protocol: The physical stability of the compounds was also assessed using a dynamic light scattering assay.
In the present study, the physical stability of test compounds was assessed by determining the apparent hydrodynamic radius (Rh), the scattering intensity (I) and mass contribution (M) after synthesis (0 weeks) and after storage for 4 weeks at 40° C.
For each solution of test compound, the hydrodynamic radius Rh and the diffusion constant D (related via the Stokes-Einstein equation) were determined as an average over triplicates. Both parameters were determined at different compound concentrations (e.g., Rh1 and D1: 1 mg/ml and Rh5 and D5: 5 mg/ml, Rh10 and D10: 10 mg/mL) in the same buffer system. The difference of these parameters between low and high peptide concentration is a surrogate for the DLS interaction parameter kD. […] In addition, the hydrodynamic radius Rh and the corresponding Scattering Intensity (%) were determined as an average over duplicates. The target concentration was 300 μM. Therefore, solutions from solid samples were prepared in a buffer system with a concentration of 300 μM compound based on the previously determined % purity.
DLS measurements were performed on a DynaPro Plate Reader I (Wyatt Technology, Santa Barbara, CA, US) with an 837 nm laser light source at a scattering angle of 150°. The data were collected and processed with Dynamics V 7.8.1.3 or 7.8.2.18 software provided by Wyatt Technology.
Hydrodynamic radii were determined with non-negatively constrained least squares (NNLS) methods using DYNALS algorithms with regularization fit. […] Samples were tempered over 1 hour at +25° C. and visually inspected before analysis.
Samples were mixed with the aid of a pipet tip. Measurements were performed in 5 replicates. […] The plate was centrifuged for 2 minutes at 600 rcf. After removing the sealing, the samples were measured at +25° C.

CRF1R receptor = target: T2, CRF1R receptor (Homo sapiens, UniProt P34998); experiment: cAMP activity at anti-target CRF1R, CRF1R-overexpression CHO cell line (Example 9); type: cell-based; settings: CRF1R-overexpression CHO cell line
T2 construct: host or cells: CHO-K1 clone 2
T2 sequence (P34998 24-415): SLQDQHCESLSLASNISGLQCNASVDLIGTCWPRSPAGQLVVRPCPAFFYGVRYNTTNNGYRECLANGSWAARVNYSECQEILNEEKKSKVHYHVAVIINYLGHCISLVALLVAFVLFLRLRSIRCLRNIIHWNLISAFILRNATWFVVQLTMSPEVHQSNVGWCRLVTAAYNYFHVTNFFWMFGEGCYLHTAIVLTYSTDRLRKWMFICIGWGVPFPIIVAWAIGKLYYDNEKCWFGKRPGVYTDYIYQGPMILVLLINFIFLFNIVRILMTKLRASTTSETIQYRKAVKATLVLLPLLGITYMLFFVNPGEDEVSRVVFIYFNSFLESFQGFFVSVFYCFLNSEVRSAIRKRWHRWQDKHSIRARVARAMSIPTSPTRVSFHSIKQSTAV
Outline: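 cAMP accumulation was read by HTRF after 30 min at room temperature of compound treatment. Cells were cryopreserved CHO cells overexpressing CRF1R, plated at 2000/well in IBMX (2 mM)-containing HBSS/HEPES buffer with 0 or 0.1% HSA. Activity was normalized to 1000 nM UCN2 as 100%.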

[4] = 0% HSA, read-out: EC50 [nM], 0% HSA
[5] = pH 7.4, Solubility in Buffer C [mg/ml]
[6] = 0.1% HSA, read-out: EC50 [nM], 0.1% HSA

Structure (SMILES)	EC50 (human CRF2α receptor; [4])	EC50 (rat CRF2R α receptor)	Relative purity loss [%] [1]	solubility at 1 h [2, 5]	Apparent Rh [nm] 0 weeks [3]	Scattering Intensity (I) [%] 0 weeks [3]	Apparent Rh [nm] 4 weeks [3]	Scattering Intensity (I) [%] 4 weeks [3]	EC50 (human CRF2α receptor; [6])	EC50 (CRF1R receptor; 0% HSA)	Emax (CRF1R receptor; read-out: Emax (%))	solubility at 1 h ([2]; pH 4.5, Solubility in Buffer A [mg/ml])	solubility at 1 h ([2]; pH 4.5, Solubility in Buffer B [mg/ml])
CC[C@H](C)[C@H](N)C(=O)N[C@H](C(=O)N[C@@H](CC(C)C)C(=O)N[C@@H](CO)C(=O)N[C@@H](CC(C)C)C(=O)N[C@@H](CC(=O)O)C(=O)N[C@@H](C(=O)N1CCC[C@H]1C(=O)N[C@H](C(=O)N[C@@H](CCCCN)C(=O)N[C@@H](CC(C)C)C(=O)N[C@@H](CCCCNC(=O)COCCOCCNC(=O)COCCOCCNC(=O)CC[C@H](NC(=O)CCCCCCCCCCCCCCCCC(=O)O)C(=O)O)C(=O)N[C@@H](CCC(N)=O)C(=O)N[C@@H](CCCCN)C(=O)N[C@@H](CC(C)C)C(=O)N[C@@H](CC(C)C)C(=O)N[C@@H](CCCCN)C(=O)N[C@@H](CCC(N)=O)C(=O)N[C@@H](CCC(=O)O)C(=O)N[C@@H](CCCNC(=N)N)C(=O)N[C@@H](CCC(N)=O)C(=O)N[C@@H](CCCNC(=N)N)C(=O)N[C@@H](CCCCN)C(=O)NC(C)(C)C(=O)N[C@@H](CCCNC(=N)N)C(=O)N[C@@H](CCC(=O)O)C(=O)N[C@@H](CCC(N)=O)C(=O)N[C@@H](C)C(=O)N[C@@H](CCC(=O)O)C(=O)N[C@@H](CCCCN)C(=O)N[C@@H](CC(N)=O)C(=O)N[C@@H](CCCCN)C(=O)N[C@@H](CCCNC(=N)N)C(=O)N[C@H](C(=O)N[C@@H](CC(C)C)C(=O)N[C@@H](CCC(=O)O)C(=O)N[C@@H](CCCNC(=N)N)C(=O)N[C@H](C(N)=O)C(C)C)[C@@H](C)CC)[C@@H](C)O)C(C)C)C(C)C [compound 36] (H-IVLSLD[dV]PTKLK([AEEA-AEEA-γGlu-C18 diacid])QKLLKQERQRK[Aib]REQAEKNKRILERV-NH2; N-terminus assumed)	1.45 nM	13.3 nM	3.65%	> 9700 µg/mL	1.42 ± 0.08 nm	88 ± 8%	1.48 ± 0.11 nm	98 ± 2%	–	–	–	–	–
CC[C@H](C)[C@H](N)C(=O)N[C@H](C(=O)N[C@@H](CC(C)C)C(=O)N[C@@H](CO)C(=O)N[C@@H](CC(C)C)C(=O)N[C@@H](CC(=O)O)C(=O)N[C@@H](C(=O)N1CCC[C@H]1C(=O)N[C@H](C(=O)N[C@@H](CCCCN)C(=O)N[C@@H](CC(C)C)C(=O)N[C@@H](CCCCNC(=O)COCCOCCNC(=O)COCCOCCNC(=O)CC[C@H](NC(=O)CCCCCCCCCCCCCCCCC(=O)O)C(=O)O)C(=O)N[C@@H](CCC(N)=O)C(=O)N[C@H](C(=O)N[C@@H](CC(C)C)C(=O)N[C@@H](CC(C)C)C(=O)N[C@@H](CCCCN)C(=O)N[C@@H](CCC(N)=O)C(=O)N[C@@H](CCC(=O)O)C(=O)N[C@@H](CCCNC(=N)N)C(=O)N[C@@H](CCC(N)=O)C(=O)N[C@@H](CCCCN)C(=O)N[C@@H](CCCCN)C(=O)N[C@@H](CCC(N)=O)C(=O)N[C@@H](CCCNC(=N)N)C(=O)N[C@@H](CCC(=O)O)C(=O)N[C@@H](CCCCN)C(=O)N[C@@H](C)C(=O)N[C@@H](CCC(=O)O)C(=O)N[C@@H](CCCCN)C(=O)N[C@@H](CC(N)=O)C(=O)N[C@@H](CCCCN)C(=O)N[C@@H](CCC(N)=O)C(=O)N[C@H](C(=O)N[C@@H](CC(C)C)C(=O)N[C@@H](C)C(=O)N[C@@H](CCC(N)=O)C(=O)N[C@H](C(N)=O)C(C)C)[C@@H](C)CC)[C@@H](C)CC)[C@@H](C)CC)C(C)C)C(C)C [compound 138] (H-IVLSLD[dV]PIKLK([AEEA-AEEA-γGlu-C18 diacid])QILLKQERQKKQREKAEKNKQILAQV-NH2; N-terminus assumed)	0.06 nM	0.26 nM	2.85%	8200 µg/mL (≈ 1570 µM)	2.75 ± 0.19 nm	86 ± 4%	2.82 ± 0.11 nm	84 ± 1%	3.12 nM	> 1000 nM	4.38%	> 8600 µg/mL	> 8700 µg/mL
CC[C@H](C)[C@H](N)C(=O)N[C@H](C(=O)N[C@@H](CC(C)C)C(=O)N[C@@H](CO)C(=O)N[C@@H](CC(C)C)C(=O)N[C@@H](CC(=O)O)C(=O)N[C@@H](C(=O)N1CCC[C@H]1C(=O)N[C@H](C(=O)N[C@@H](CCCCN)C(=O)N[C@@H](CC(C)C)C(=O)N[C@@H](CCCCNC(=O)COCCOCCNC(=O)COCCOCCNC(=O)CC[C@H](NC(=O)CCCCCCCCCCCCCCCCC(=O)O)C(=O)O)C(=O)N[C@@H](CCC(N)=O)C(=O)N[C@H](C(=O)N[C@@H](CC(C)C)C(=O)N[C@@H](CC(C)C)C(=O)N[C@@H](CCC(=O)O)C(=O)N[C@@H](CCC(N)=O)C(=O)N[C@@H](C)C(=O)N[C@@H](CCCNC(=N)N)C(=O)N[C@@H](CCC(N)=O)C(=O)N[C@@H](CCCCN)C(=O)NC(C)(C)C(=O)N[C@@H](CCC(N)=O)C(=O)N[C@@H](CCCNC(=N)N)C(=O)N[C@@H](C)C(=O)N[C@@H](CCC(N)=O)C(=O)N[C@@H](C)C(=O)N[C@@H](CCC(=O)O)C(=O)N[C@@H](CCCCN)C(=O)N[C@@H](CC(N)=O)C(=O)N[C@@H](CCCCN)C(=O)N[C@@H](CCCNC(=N)N)C(=O)N[C@H](C(=O)N[C@@H](CC(C)C)C(=O)N[C@@H](CCC(=O)O)C(=O)N[C@@H](CCCNC(=N)N)C(=O)N[C@H](C(N)=O)C(C)C)[C@@H](C)CC)[C@@H](C)CC)[C@@H](C)CC)C(C)C)C(C)C [compound 140] (H-IVLSLD[dV]PIKLK([AEEA-AEEA-γGlu-C18 diacid])QILLEQARQK[Aib]QRAQAEKNKRILERV-NH2; N-terminus assumed)	0.04 nM	0.1 nM	4.30%	–	–	–	–	–	1.27 nM	–	–	–	–
